Patent US20260232767A1, “INTERLEUKIN-23 RECEPTOR ANTAGONIST PEPTIDES FOR USE IN THE TREATMENT OF PSORIASIS” (Janssen Pharmaceutica NV, priority 2023, published 2026)

Tested on: subjects with moderate-to-severe plaque psoriasis
Assay: PASI response, Example 1 16-week dose-ranging study
Assay type: in vivo, human
Details: for PASI 100% Improvement, subjects / PASI ≥75% Improvement, subjects / PASI ≥90% Improvement, subjects: Combined doses
Description: The Psoriasis Area and Severity Index (PASI) is a system used for assessing and grading the severity of psoriatic lesions and their response to therapy. In the PASI system, the body is divided into four regions: the head, trunk, upper extremities, and lower extremities. Each of these areas is assessed and scored separately for erythema, induration, and scaling, which are each rated on a scale of 0 to 4 and extent of involvement on a scale of 0 to 6. The PASI produces a numeric score (a “PASI score”) that can range from 0 to 72. A higher score indicates more severe disease.
This was a randomized, double-blind, placebo-controlled, dose-ranging, parallel group, multicenter, interventional study in subjects with moderate-to-severe plaque psoriasis. A target of 240 subjects were enrolled in this study with 40 subjects planned per intervention group.
Clinician-reported outcomes including Psoriasis Area and Severity Index (PASI), Body Surface Area (BSA), Investigator's Global Assessment (IGA), Nail Psoriasis Area and Severity Index (NAPSI), Fingernail Physician's Global Assessment (f-PGA), Static Physician's Global Assessment of Genitalia (s-PGA-G), Physician's Global Assessment of Hands and/or Feet (hf-PGA), and Scalp Specific Investigator Global Assessment (ss-IGA) were obtained at Week 0, 8, and 16. PASI and IGA were also obtained at Weeks 1, 2, 4, and 12, and at Week 20, four weeks after the administration of the tablets has stopped.
The primary efficacy endpoint was the proportion of participants achieving a PASI 75 response at Week 16, defined as at least a 75% reduction from baseline in PASI total score.
For the primary analysis, composite strategy (non-responder imputation) was applied to address intercurrent event #1 (Discontinuation of study intervention due to lack of efficacy or due to an AE of worsening of psoriasis) and #2 (initiation of a protocol-prohibited medication or therapy that could improve psoriasis); and treatment policy strategy (observed data) was applied to intercurrent event #3 (Discontinuation of study intervention due to other reasons). Participants with missing data after application of ICEs are also considered as non-responders.
In addition to the response analysis, pairwise comparisons of each treatment group versus the placebo group were performed for the primary endpoint of PASI 75 at Week 16. Pairwise comparisons were not adjusted for multiplicity. The Cochran-Mantel-Haenszel chi-square statistic stratified by baseline weight category (≤90 kg, >90 kg) at a 2-sided significance level of 0.05 was used (Table 2).

[1] = Week 16, trough plasma conc Q2 to <Q3
[2] = Week 16, trough plasma conc ≥Q3
[3] = Week 16, 25 mg BID, intermediate plasma concentration quartile <Q1, N=1
[4] = Week 16, 25 mg BID, intermediate plasma concentration quartile Q1 to <Q2, N=1
[5] = Week 16, 25 mg BID, intermediate plasma concentration quartile Q2 to <Q3, N=1
[6] = Week 16, 25 mg BID, intermediate plasma concentration quartile ≥Q3, N=1
[7] = Week 16, 25 mg QD, intermediate plasma concentration quartile Q1 to <Q2, N=1
[8] = Week 16, 25 mg QD, intermediate plasma concentration quartile Q2 to <Q3, N=1
[9] = Week 16, 25 mg QD, intermediate plasma concentration quartile ≥Q3, N=1
[10] = Week 16, 50 mg QD, intermediate plasma concentration quartile <Q1, N=1
[11] = Week 16, 50 mg QD, intermediate plasma concentration quartile Q1 to <Q2, N=1
[12] = Week 16, 50 mg QD, intermediate plasma concentration quartile Q2 to <Q3, N=1
[13] = Week 16, 50 mg QD, intermediate plasma concentration quartile ≥Q3, N=2
[14] = Week 16, 100 mg BID, intermediate plasma concentration quartile <Q1, N=1
[15] = Week 16, 100 mg BID, intermediate plasma concentration quartile Q1 to <Q2, N=1
[16] = Week 16, 100 mg BID, intermediate plasma concentration quartile Q2 to <Q3, N=1
[17] = Week 16, 100 mg BID, intermediate plasma concentration quartile ≥Q3, N=2
[18] = Week 16, 100 mg QD, intermediate plasma concentration quartile <Q1, N=1
[19] = Week 16, 100 mg QD, intermediate plasma concentration quartile Q1 to <Q2, N=1
[20] = Week 16, 100 mg QD, intermediate plasma concentration quartile Q2 to <Q3, N=1
[21] = Week 16, 100 mg QD, intermediate plasma concentration quartile ≥Q3, N=1
[22] = Week 16, Combined regimens, intermediate plasma concentration quartile <Q1, N=5
[23] = Week 16, Combined regimens, intermediate plasma concentration quartile Q1 to <Q2, N=5
[24] = Week 16, Combined regimens, intermediate plasma concentration quartile Q2 to <Q3, N=5
[25] = Week 16, Combined regimens, intermediate plasma concentration quartile ≥Q3, N=6

For `CC(=O)NCCCC[C@@H]1NC(=O)[C@H](Cc2c[nH]c3c(C)cccc23)NC(=O)[C@H]([C@@H](C)O)NC(=O)[C@H](CC(N)=O)NC(=O)[C@@H](NC(C)=O)C(C)(C)SSC(C)(C)[C@@H](C(=O)N[C@@H](Cc2ccc(OCCN)cc2)C(=O)N[C@@H](Cc2ccc3ccccc3c2)C(=O)NC2(C(=O)N[C@@H](CCC(=O)O)C(=O)N[C@@H](CC(N)=O)C(=O)N[C@@H](Cc3cccnc3)C(=O)N(C)CC(N)=O)CCOCC2)NC1=O` [IL-23 receptor antagonist peptide, Ac-[Pen]*-N-T-[W(7-Me)]-[Lys(Ac)]-[Pen]*-Phe[4-(2-aminoethoxy)]-[2-Nal]-[THP]-E-N-[3-Pal]-Sarc-NH2 (*[Pen]-[Pen]* formdisulfidebond)], the “PASI 100% Improvement, subjects” value [1] was 4 (15.4%), the “PASI ≥75% Improvement, subjects” value [1] was 14 (53.8%) and the “PASI ≥90% Improvement, subjects” value [1] was 11 (42.3%). For the same compound, the “PASI 100% Improvement, subjects” value [2] was 9 (33.3%), the “PASI ≥75% Improvement, subjects” value [2] was 22 (81.5%) and the “PASI ≥90% Improvement, subjects” value [2] was 15 (55.6%). For the same compound, the “PASI 100% Improvement, subjects n (%)” value [3] was 0, the “PASI ≥75% Improvement, subjects n (%)” value [3] was 0 and the “PASI ≥90% Improvement, subjects n (%)” value [3] was 0. For the same compound, the “PASI 100% Improvement, subjects n (%)” value [4] was 0, the “PASI ≥75% Improvement, subjects n (%)” value [4] was 1 (100.0%) and the “PASI ≥90% Improvement, subjects n (%)” value [4] was 0. The “PASI 100% Improvement, subjects n (%)” value [5] was 0, the “PASI ≥75% Improvement, subjects n (%)” value [5] was 0 and the “PASI ≥90% Improvement, subjects n (%)” value [5] was 0. For the same compound, the “PASI 100% Improvement, subjects n (%)” value [6] was 0, the “PASI ≥75% Improvement, subjects n (%)” value [6] was 1 (100.0%) and the “PASI ≥90% Improvement, subjects n (%)” value [6] was 1 (100.0%). For the same compound, the “PASI 100% Improvement, subjects n (%)” value [7] was 0, the “PASI ≥75% Improvement, subjects n (%)” value [7] was 0 and the “PASI ≥90% Improvement, subjects n (%)” value [7] was 0. The “PASI 100% Improvement, subjects n (%)” value [8] was 1 (100.0%), the “PASI ≥75% Improvement, subjects n (%)” value [8] was 1 (100.0%) and the “PASI ≥90% Improvement, subjects n (%)” value [8] was 1 (100.0%). For the same compound, the “PASI 100% Improvement, subjects n (%)” value [9] was 0, the “PASI ≥75% Improvement, subjects n (%)” value [9] was 0 and the “PASI ≥90% Improvement, subjects n (%)” value [9] was 0. The “PASI 100% Improvement, subjects n (%)” value [10] was 0, the “PASI ≥75% Improvement, subjects n (%)” value [10] was 1 (100.0%) and the “PASI ≥90% Improvement, subjects n (%)” value [10] was 0. For the same compound, the “PASI 100% Improvement, subjects n (%)” value [11] was 1 (100.0%), the “PASI ≥75% Improvement, subjects n (%)” value [11] was 1 (100.0%) and the “PASI ≥90% Improvement, subjects n (%)” value [11] was 1 (100.0%). For the same compound, the “PASI 100% Improvement, subjects n (%)” value [12] was 1 (100.0%), the “PASI ≥75% Improvement, subjects n (%)” value [12] was 1 (100.0%) and the “PASI ≥90% Improvement, subjects n (%)” value [12] was 1 (100.0%). For the same compound, the “PASI 100% Improvement, subjects n (%)” value [13] was 0, the “PASI ≥75% Improvement, subjects n (%)” value [13] was 1 (50.0%) and the “PASI ≥90% Improvement, subjects n (%)” value [13] was 1 (50.0%). For the same compound, the “PASI 100% Improvement, subjects n (%)” value [14] was 1 (100.0%), the “PASI ≥75% Improvement, subjects n (%)” value [14] was 1 (100.0%) and the “PASI ≥90% Improvement, subjects n (%)” value [14] was 1 (100.0%). The “PASI 100% Improvement, subjects n (%)” value [15] was 1 (100.0%), the “PASI ≥75% Improvement, subjects n (%)” value [15] was 1 (100.0%) and the “PASI ≥90% Improvement, subjects n (%)” value [15] was 1 (100.0%). The “PASI 100% Improvement, subjects n (%)” value [16] was 0, the “PASI ≥75% Improvement, subjects n (%)” value [16] was 1 (100.0%) and the “PASI ≥90% Improvement, subjects n (%)” value [16] was 0. For the same compound, the “PASI 100% Improvement, subjects n (%)” value [17] was 2 (100.0%), the “PASI ≥75% Improvement, subjects n (%)” value [17] was 2 (100.0%) and the “PASI ≥90% Improvement, subjects n (%)” value [17] was 2 (100.0%). The “PASI 100% Improvement, subjects n (%)” value [18] was 1 (100.0%), the “PASI ≥75% Improvement, subjects n (%)” value [18] was 1 (100.0%) and the “PASI ≥90% Improvement, subjects n (%)” value [18] was 1 (100.0%). For the same compound, the “PASI 100% Improvement, subjects n (%)” value [19] was 1 (100.0%), the “PASI ≥75% Improvement, subjects n (%)” value [19] was 1 (100.0%) and the “PASI ≥90% Improvement, subjects n (%)” value [19] was 1 (100.0%). For the same compound, the “PASI 100% Improvement, subjects n (%)” value [20] was 0, the “PASI ≥75% Improvement, subjects n (%)” value [20] was 1 (100.0%) and the “PASI ≥90% Improvement, subjects n (%)” value [20] was 0. The “PASI 100% Improvement, subjects n (%)” value [21] was 0, the “PASI ≥75% Improvement, subjects n (%)” value [21] was 1 (100.0%) and the “PASI ≥90% Improvement, subjects n (%)” value [21] was 0). The “PASI 100% Improvement, subjects n (%)” value [22] was 3 (60.0%), the “PASI ≥75% Improvement, subjects n (%)” value [22] was 4 (80.0%) and the “PASI ≥90% Improvement, subjects n (%)” value [22] was 3 (60.0%). For the same compound, the “PASI 100% Improvement, subjects n (%)” value [23] was 2 (40.0%), the “PASI ≥75% Improvement, subjects n (%)” value [23] was 3 (60.0%) and the “PASI ≥90% Improvement, subjects n (%)” value [23] was 2 (40.0%). The “PASI 100% Improvement, subjects n (%)” value [24] was 1 (20.0%), the “PASI ≥75% Improvement, subjects n (%)” value [24] was 3 (60.0%) and the “PASI ≥90% Improvement, subjects n (%)” value [24] was 1 (20.0%). The “PASI 100% Improvement, subjects n (%)” value [25] was 3 (50.0%), the “PASI ≥75% Improvement, subjects n (%)” value [25] was 6 (100.0%) and the “PASI ≥90% Improvement, subjects n (%)” value [25] was 5 (83.3%). The “Improvement (reduction) in PASI total score from baseline” value (each dose group vs placebo, Week 16) was “significantly greater improvement”.
